Results from patent US8569472B2, “Efficient cell culture system for hepatitis C virus genotype 6A” (priority 2007, dated 2013).

System: JFH1-based recombinants of genotypes 1a, 1b, 2a, 2b, and 6a
Assay type: cell-based, hepatitis C virus
Settings: 500 IU/mL interferon-α2b, 20 μM ribavirin or 50 μM amantadine; for decrease in supernatant HCV RNA titers / decrease in the number of infected cells: 72 hrs, Huh7.5 cultures infected with genotype 1a/1b, 2a/2b and 6a recombinants

Compound	antiviral effect of treatment (infected cells and supernatant HCV RNA titers)	decrease in supernatant HCV RNA titers	decrease in the number of infected cells
NC(=O)c1ncn([C@@H]2O[C@H](CO)[C@@H](O)[C@H]2O)n1 [ribavirin]	no apparent effect	did not decrease	did not decrease
NC12CC3CC(CC(C3)C1)C2 [amantadine]	no apparent effect	did not decrease	did not decrease
